Data on five molecules can be found in patent US4192889A, “Ruminant feeds containing trichloroethyl esters of essential amino acids” (E. R. Squibb & Sons, Inc., priority 1979, dated 1980).

Assay [1] has as its system volatile fatty acid concentrations in the in vitro rumen fermentation. Briefly: in vitro rumen fermentation, volatile fatty acids (alfalfa hay:concentrate 3:1). Set-up: species or system sheep. The conditions noted are these: for Acetic / Acetic Propionic (ratio) / Propionic / Total Acids / butyric: Table 10, 0.2 mg/ml. From the text: Based on the knowledge of the foregoing, a practical method of testing growth promoters in vitro has been the simulation of conditions in the rumen with fermentation reactions. Such a method comprises adding the test substance to a substrate such as ground hay, corn or mixtures of feed materials. Rumen fluid from a fasted ruminant (bovine, ovine, or caprine) is mixed with a buffer solution and added to a fermentation flask containing the test additive and the substrate. The flask is purged of oxygen, stoppered with a pressure release valve, and incubated at 39°±1° C. for periods up to 48 hours. The change in volatile fatty acid concentration is determined by chemical analysis of the rumen fluid before and after fermentation. As a control, the above experiment is run without a test additive.
(§1) A one gram sample of substrate ground through a 1 mm screen is weighted into 100 ml. lipless beakers equipped with gas-release valves. The substrate consists of alfalfa hay containing approximately 16% protein and a concentrate containing ground corn 60.7%, alfalfa meal 17.5%, molasses 10.0%, soybean meal 5.3%, wheat bran 5.0%, trace mineralized salt 1.0%, limestone 0.5% and Vitamin D 300,000 I.U./ton, mixed in the proportion 3:1. The experimental composition is added to the substrate. 25 ml. of filtered rumen fluid obtained from fasted sheep maintained on feed the same as the above mentioned substrate and 25 ml. of McDougal's buffer solution serve as the inoculum. The buffer solution is as follows:
(§2) The fermentation mixture is flushed with carbon dioxide and the vessel is capped with a gas release valve. The fermentation vessel (beaker) is placed in a water bath and incubated at 39° C.±1° for six hours. The sample is mixed every hour by shaking the beaker.
(§3) At the end of the 6-hour fermentation period the sample is strained through 4 layers of cheesecloth into a sample bottle containing 1 ml. saturated solution of mercuric chloride. The sample is frozen immediately until analyzed for the volatile fatty acids (VFA) (mg/100 ml.). Prior to analysis, each sample is acidified with 30% phosphoric acid and then analyzed by gas chromatography using a column containing 5% nonylphenoxypolyoxyethylene ethanol plus 0.5% phosphoric acid on 100-120 mesh Gas Chrom S. The acids determined are acetic, propionic, butyric, isobutyric, valeric and isovaleric acids. Total VFA is considered as the addition of these acids. The ratio of acetic:propionic (A:P) is obtained by dividing the concentration of acetic acid by that of propionic acid.
The effect of various compounds alone on the volatile fatty acid concentrations was determined by the procedure of Example 3. […] A direct comparison between phenylalanine and phenylalanine trichloroethyl ester is provided.

Assay [2] can be described thus: body weight gain and feed efficiency of growing lambs. In kind it is in vivo, lambs (wether and ewe). As to the method:
A test was conducted to determine if feeding L-phenylalanine 2,2,2-trichloroethyl ester to growing lambs was effective in improving growth and feed efficiency. Wether and ewe lambs were divided into groups of 30 lambs each. They were acclimated to their pens for 2 weeks prior to treatment.
The feed supplied to the animals had the following composition
The test compound in an amount of 0.0055% (50 g/ton) was admixed with the above feed composition.
Body weights and feed consumption were recorded at 0, 2, 4 and 6 weeks. Feed efficiencies were calculated.
The test procedure of Example 9 was followed to test the growth effect and feed efficiency of glycine 2,2,2-trichloroethyl ester on growing lambs. The feed composition of Example 9 was used but contained glycine 2,2,2-trichloroethyl ester in an amount of 0.0044% (40 g/ton). There were 44 lambs in the control group receiving the feed composition without additive and 42 lambs receiving the feed composition containing the amino acid ester.
The test procedure of Example 9 was followed to test the growth effect and feed efficiency of L-phenylalanine 2,2,2-trichloroethyl ester on growing lambs. The feed composition of Example 9 was used but contained 0.0088% (80 g/ton) of this amino acid ester. There were 59 lambs in the control group fed the feed without additive and 58 lambs in the group fed the feed composition containing the test compound.

Assay [3] deals with volatile fatty acid concentrations in fistulated sheep. Briefly: volatile fatty acid concentrations in vivo in sheep with rumen fistulae (227 g concentrate + 680 g alfalfa hay). Details: species or system sheep (wethers). The conditions noted are these: for acetic:propionic ratio (in words) / proportion of propionic acid (in words): fistulated sheep; for Total acids (mg/100 ml.): Table 3, treatment day 7. From the text: (§4) Mature sheep (wethers) fitted with permanent rumen fistulae were used to determine the effect of L-phenylalanine, 2,2,2-trichloroethyl ester on volatile fatty acid concentrations in vivo (3 wethers per treatment). The animals were individually penned and fed 227 g. of concentrate (described in Example 3) and 680 g. of alfalfa hay once daily. The test compound was admixed with the concentrate. The sheep were medicated for 7 days. Samples for analysis were obtained before (Day 0) and after treatment (Day 7) approximately 6 hours after feeding.

Assay [4] concerns volatile fatty acid concentrations in the in vitro rumen fermentation. Briefly: in vitro rumen fermentation, volatile fatty acids (high concentrate substrate, alfalfa hay:concentrate 1:3). Set-up: species or system sheep. As to the method:
as §1, §2, §3
The procedure is described in Example 3. In this example, however, the substrate consisted of alfalfa hay and concentrate in the ratio of 1:3 and inoculum was obtained from sheep fed alfalfa and concentrate in the ratio of 1:3. The concentrate (Fit-N-Fresh)is commercially available from Agway, Inc. and contains grain products, plant protein products, processed grain by-products, cane molasses, minerals, vitamins and a preservative.
The 2,2,2-trichloroethyl ester of glycine was tested in vitro in a manner similar to that described in Example 4.

Assay [5] concerns volatile fatty acid concentrations in the rumen of fistulated wethers. Nature of the assay: volatile fatty acid concentrations in the rumen of fistulated wethers (454 g concentrate + 454 g chopped mixed hay). In kind it is in vivo, sheep (wethers). The conditions noted are these: for Total acids (mg/100 ml): Table 4, treatment day 7.
Description: as §4
An experiment similar to that described in Example 5 was performed except that the animals (3 per treatment) were fed 454 g. of concentrate (described in Example 3) and 454 g. of chopped mixed (grasses) hay.

Where [6] appears, read: fistulated wethers, concentrate/mixed hay diet.

For `N[C@@H](Cc1ccccc1)C(=O)O` [L-phenylalanine], in assay [1], the Acetic is listed as 95 % of Control, the “Acetic Propionic (ratio)” value is on record as 100 % of Control, the Propionic is 94 % of Control and the “Total Acids” value is on record as 96 % of Control. In assay [1], the butyric is 97 % of Control.
Take `N[C@@H](Cc1ccc(Cl)cc1)C(=O)O` (racemic) [p-chlorophenylalanine]: in assay [1], the Acetic is 91 % of Control, the “Acetic Propionic (ratio)” value is 101 % of Control, the Propionic was 91 % of Control and the “Total Acids” value was 91 % of Control. Besides, the butyric in assay [1] was 92 % of Control.
As for `NCC(=O)OCC(Cl)(Cl)Cl` [2,2,2-trichloroethyl ester of glycine, aminoacetic acid 2,2,2-trichloroethyl ester], the “Weight gain” value in assay [2] (Table 8, 0.0044% (40 g/ton) in feed, 0-2 wks, control 2.32) was 2.31 kg; in assay [2] (Table 8, 0.0044% (40 g/ton) in feed, 0-4 wks, control 5.09), 5.13 kg; in assay [2] (Table 8, 0.0044% (40 g/ton) in feed, 0-6 wks, control 7.18), 7.37 kg. The Feed efficiency gain/feed in assay [2] (Table 8, 0.0044% (40 g/ton) in feed, 0-6 wks, control 0.148) is on record as 0.154 gain/feed. The “Total acid (mg/100 ml)” value in assay [3] (Table 6, 500 mg/head/day, treatment) is recorded as 731 mg/100 ml. The “acetic:propionic ratio (in words)” value in assay [3] and in assay [4] was “decreasing the acetic:propionic ratio” in each case. In addition, the “proportion of propionic acid (in words)” value in assay [3] is recorded as “effective in increasing the proportion of propionic acid”. Further, the “propionic acid concentration (in words)” value in assay [4] is “effective in increasing propionic acid concentration”.
On to `O=CC(Cl)(Cl)Cl` [chloral], for which, in assay [1], the Acetic was 88 % of Control, the “Acetic Propionic (ratio)” value is 80 % of Control, the Propionic is on record as 110 % of Control and the “Total Acids” value was 96 % of Control. For the same molecule, the butyric in assay [1] is reported as 110 % of Control.
With `N[C@@H](Cc1ccccc1)C(=O)OCC(Cl)(Cl)Cl` [L-Phenylalanine 2,2,2-trichloroethyl ester], the “acetic to propionic acid ratio (in words)” value in assay [1] (at all levels) is “decreasing the acetic to propionic acid ratio”. In assay [1] (at all levels), the “propionic acid concentrations (in words)” value was “effective in increasing the propionic acid concentrations”. Also, the “feed efficiency of growing lambs (in words)” value in assay [2] (0.0055% (50 g/ton) in the feed) is recorded as “improving feed efficiency”. Besides, the “gains of growing lambs (in words)” value in assay [2] (0.0055% (50 g/ton) in the feed) is on record as “effective in increasing gains”. Moreover, the “Body weight gain” value in assay [2] (Table 7, 0.0055% (50 g/ton) in feed, 0-2 wks., control 2.47) came out at 2.97 kg; in assay [2] (Table 7, 0.0055% (50 g/ton) in feed, 0-4 wks., control 5.80), 5.82 kg; in assay [2] (Table 7, 0.0055% (50 g/ton) in feed, 0-6 wk., control 8.51), 9.08 kg. Besides, the “Feed efficiency (gain/unit of feed)” value in assay [2] (Table 7, 0.0055% (50 g/ton) in feed, 0-6 wks., control 0.190) is 0.196 gain/unit of feed. Also, the “Weight gain” value in assay [2] (Table 9, 0.0088% (80 g/ton) in feed, 0-2 wks, control 1.50) is recorded as 1.49 kg; in assay [2] (Table 9, 0.0088% (80 g/ton) in feed, 0-4 wks, control 4.44), 4.63 kg; in assay [2] (Table 9, 0.0088% (80 g/ton) in feed, 0-6 wks, control 7.56) it was 7.81 kg. Besides, the Feed efficiency gain/feed in assay [2] (Table 9, 0.0088% (80 g/ton) in feed, 0-6 wks, control 0.160) worked out at 0.168 gain/feed. Moreover, the “Total acids (mg/100 ml.)” value stood at 667 mg/100 ml in assay [3] (200 mg/head/day) and 624 mg/100 ml in assay [3] (500 mg/head/day). The “acetic:propionic ratio (in words)” value was “decreased the acetic:propionic ratio” in assay [3], “decreasing the acetic:propionic ratio” in assay [5] (setting [6]) and “decreasing the acetic:propionic ratio” in assay [4]. The “proportion of propionic acid (in words)” value in assay [3] is “increased the proportion of propionic acid”; in assay [5] (setting [6]), “effective in increasing the proportion of propionic acid”. The entries for the “Total acids (mg/100 ml)” value in assay [5] (200 mg/head/day) and in assay [5] (500 mg/head/day) were 663 mg/100 ml and 734 mg/100 ml, respectively. Besides, the “propionic acid concentration (in words)” value in assay [4] is “effective in increasing the propionic acid concentration”.
